Test results published in patent US20190314379A1, “METHODS OF USING CANNABINOID CB2 RECEPTOR AGONIST COMPOSITIONS TO SUPPRESS AND PREVENT OPIOID TOLERANCE AND WITHDRAWAL IN A SUBJECT” (Indiana University Research and Technology Corporation, priority 2018, published 2019).
pEC50: −log10 of the molar value. “Also recorded” adds a separate entry of the source.

Key:
mouse CB2 receptors [1] = target: T1, mouse CB2 receptors (Mus musculus, UniProt P47936); assay: Arrestin recruitment (PathHunter CHO K1CNR2, enzyme complementation); format: cell-based
T1 construct: expressed in transfected cells
T1 sequence (P47936 whole entry): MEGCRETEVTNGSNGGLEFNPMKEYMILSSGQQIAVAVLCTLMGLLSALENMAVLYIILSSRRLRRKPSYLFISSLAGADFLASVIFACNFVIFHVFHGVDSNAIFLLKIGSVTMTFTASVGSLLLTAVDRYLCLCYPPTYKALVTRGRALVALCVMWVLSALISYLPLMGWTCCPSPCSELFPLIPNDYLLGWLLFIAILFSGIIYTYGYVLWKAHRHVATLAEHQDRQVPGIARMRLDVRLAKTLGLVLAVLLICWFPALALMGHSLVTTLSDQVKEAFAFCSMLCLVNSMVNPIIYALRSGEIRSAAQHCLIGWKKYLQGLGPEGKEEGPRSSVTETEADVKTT

mouse CB2 receptors [2] = target: T1, mouse CB2 receptors; assay: On-cell western for receptor internalization, HEK mCB2; format: cell-based
mouse CB2 receptors [3] = target: T1, mouse CB2 receptors; assay: Forskolin-stimulated cAMP accumulation (cyclase), HEK mCB2; format: cell-based; settings: for forskolin-induced cAMP levels: HEK mCB2, 1 μM final concentration, 5 minutes; for forskolin-stimulated cAMP after PTX treatment: PTX 300 ng/ml overnight
mouse CB2 receptors [4] = target: T1, mouse CB2 receptors; assay: Phosphorylated ERK1/2 detection, HEK mCB2; format: cell-based
human CB2 [5] = target: T2, human CB2 (Homo sapiens, UniProt P34972); assay: On-cell western for receptor internalization, HEK hCB2; format: cell-based; design: expressed in transfected cells; settings: read-out: Internalization Emax
T2 sequence (P34972 whole entry): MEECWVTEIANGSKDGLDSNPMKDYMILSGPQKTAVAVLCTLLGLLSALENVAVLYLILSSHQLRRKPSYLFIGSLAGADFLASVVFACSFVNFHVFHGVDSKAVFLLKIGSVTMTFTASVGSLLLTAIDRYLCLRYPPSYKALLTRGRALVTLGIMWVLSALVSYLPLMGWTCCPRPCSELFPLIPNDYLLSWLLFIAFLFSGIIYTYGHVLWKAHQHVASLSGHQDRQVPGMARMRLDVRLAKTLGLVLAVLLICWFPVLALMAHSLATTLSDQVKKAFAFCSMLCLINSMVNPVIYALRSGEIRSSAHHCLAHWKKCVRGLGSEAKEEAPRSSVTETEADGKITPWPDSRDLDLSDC

human CB2 [6] = target: T2, human CB2; assay: Forskolin-stimulated cAMP accumulation (cyclase), HEK hCB2; format: cell-based; design: expressed in transfected cells; time of inhibition of forskolin-stimulated cAMP accumulation: dose or concentration left out as unconfirmed; settings: for cAMP levels, compound alone (no forskolin) / duration of decrease in cAMP: HEK hCB2; for inhibition of forskolin-induced cAMP levels, time course / inhibition of forskolin-stimulated cAMP after PTX pretreatment: HEK hCB2, 1 μM final concentration
human CB2 [7] = target: T2, human CB2; assay: Phosphorylated ERK1/2 detection, HEK hCB2; format: cell-based; design: expressed in transfected cells
[8] = tested on: paclitaxel-induced mechanical allodynia; assay: Paclitaxel-induced mechanical allodynia (electronic von Frey); format: in vivo, mouse
Experimental: (§1) In all studies, the experimenter was blinded to the treatment condition, and mice were randomly assigned to experimental conditions. Paclitaxel (4 mg/kg i.p.) was administered four times on alternate days (cumulative dose, 16 mg/kg i.p.) to induce neuropathic pain as described previously by our group (Deng et al., 2015). Control mice received an equal volume of cremophor-vehicle. Development of paclitaxel-induced allodynia was assessed on day 0, 4, 7, 11, and 14.
(§2) Effects of pharmacologic manipulations were assessed at 30 minutes after drug administration during the maintenance phase of paclitaxel-induced neuropathy (i.e., beginning day 18-20 after initial paclitaxel injection).
(§3) In experiments 2 and 3, pharmacologic manipulations were performed once daily for 12 consecutive days in each of the two phases of chronic treatment. Four days separated phase 1 and phase 2 chronic dosing in all studies comprising two phases of chronic dosing. Experiments 2 and 3 were performed concurrently using overlapping cohorts that were tested with a single vehicle (phase 1), vehicle (phase 2) group.
(§4) We then assessed the antiallodynic efficacy of chronic systemic administration of vehicle or morphine (10 mg/kg per day i.p.×12 days) administered during phase 2 in the same animals. Responsiveness to mechanical and cold stimulation was evaluated on treatment days 1, 4, 8, and 12 during phase 1 and on treatment days 16, 19, 23, and 27 during phase 2 (i.e., phase 2 started on day 16).
(§5) In experiment 4, we evaluated the impact of coadministration of morphine (10 mg/kg i.p.×12 days) with a submaximal dose of LY 2828360 (0.1 mg/kg per day i.p.×12 days) in WT and CB2 KO mice.
Paw withdrawal thresholds (grams) to mechanical stimulation were measured in duplicate for each paw using an electronic von Frey anesthesiometer supplied with a 90-g probe (model Alemo 2390-5; IITC, Woodland Hills, Calif.) as described previously. Mice were placed on an elevated metal mesh table and allowed to habituate under individual, inverted plastic cages to the testing platform for at least 20 minutes until exploratory behavior had ceased. Alter the habituation period, a force was applied to the midplantar region of the hind paw with a semiflexible tip connected to the anesthesiometer. Mechanical stimulation was terminated when the animal withdrew its paw, and the value of the applied force was recorded in grams. Mechanical paw withdrawal thresholds were obtained in duplicate for each paw and are reported as the mean of duplicate determinations from each animal, averaged across animals, for each group.

[9] = tested on: paclitaxel-induced cold allodynia; assay: Paclitaxel-induced cold allodynia (acetone); format: in vivo, mouse
Experimental: as §1, §2, §3, §4, §5
Response time (seconds) spent attending to (i.e., elevating, licking, biting, or shaking) the paw stimulated with acetone (Sigma-Aldrich) was measured in triplicate for each paw to assess cold allodynia as previously published. An acetone bubble (approximately 5 to 6 p.1) formed at the end of a blunt 1-ml syringe hub was gently applied to the plantar surface of the hind paw. Care was taken not to apply mechanical stimulation to the hind paw with the syringe itself. The total time the animal spent attending to the acetone-stimulated paw (i.e., elevation, shaking, or licking) was recorded over 1 minute after acetone application. Acetone was applied three times to each paw with a 3-minute interval between applications. Values for each animal were calculated as the mean of six determinations of acetone responsiveness derived from each mouse.

[10] = tested on: naloxone-precipitated opioid withdrawal; assay: Naloxone-precipitated opioid withdrawal in paclitaxel-treated mice; format: in vivo, mouse; settings: paclitaxel-treated WT mice
Experimental: Alter the last injection of morphine (on day 28 for two-phase treatments, on day 13 for coadministration treatment), we challenged WT or CB2KO mice from experiments 2, 3, and 4 with vehicle, followed 30 minutes later by naloxone (5 mg/kg i.p.) to precipitate opioid receptor-mediated withdrawal. Mice were video-recorded for subsequent scoring of withdrawal-like behaviors for a 30-minute interval after challenge with vehicle or naloxone.
Mice were video-taped, and the number of jumps was scored in 5-minute intervals for a total observation period of 30 minutes after challenge with either saline or naloxone (5 mg/kg i.p.).

[11] = tested on: paclitaxel-induced neuropathic pain; settings: 8 days once daily (i.p.) dosing or chronic infusion over 4 weeks; cited from earlier work
[12] = tested on: morphine analgesia and antinociceptive tolerance; settings: rats, with morphine; cited from earlier work
[13] = tested on: preclinical inflammatory, postoperative, and neuropathic pain; settings: dose- and time-dependent; cited from earlier work
[14] = tested on: formalin model of inflammatory pain; settings: coadministration; cited from earlier work
mouse CB2 receptors [15] = target: T1, mouse CB2 receptors; assay: Myo-inositol phosphate-1 (IP1) accumulation, HEK mCB2; format: cell-based; settings: via mouse CB2
[16] = WT mice, 5 mg/kg per day i.p.×12 days
[17] = WT mice, AM1710 5 mg/kg per day×12 days phase I, morphine 10 mg/kg per day×12 days phase II
[18] = paclitaxel-treated WT mice, 5 mg/kg per day i.p.×12 days, vs vehicle

Structure (SMILES): CCCCCCC(C)(C)c1ccc([C@@H]2C[C@H](O)CC[C@H]2CCCO)c(O)c1 (relative stereo) [CP55940, reference compound]
- pEC50 (mouse CB2 receptors [1]): 8.64
- arrestin recruitment (mouse CB2 receptors [1]; CHO cells expressing mCB2, 90-minute drug incubation): recruited arrestin in a concentration-dependent manner
- Emax (mouse CB2 receptors [1]; read-out: Arrestin Emax): 125%
- pEC50 (mouse CB2 receptors [2]): 8.13
- receptor internalization (mouse CB2 receptors [2]; HEK mCB2): concentration dependently internalized the mCB2
- Emax (mouse CB2 receptors [2]; read-out: Internalization Emax): 49.1%
- pEC50 (mouse CB2 receptors [3]): 8.18
- forskolin-induced cAMP levels (mouse CB2 receptors [3]): attenuated forskolin-induced cAMP levels; also recorded: stronger inhibitory effect than AM1710
- cAMP levels in the absence of forskolin (mouse CB2 receptors [3]; HEK mCB2, compound alone): alone did not change cAMP levels
- forskolin-stimulated cAMP after PTX treatment (mouse CB2 receptors [3]; mCB2, 1 μM): modestly increased cAMP accumulation at 5 minutes; also recorded: abolished the decrease in forskolin-stimulated cAMP
- time of efficacious inhibition of forskolin-stimulated adenylyl cyclase (mouse CB2 receptors [3]; mCB2, 1 μM, time course): ~5 min
- inhibition of forskolin-stimulated cAMP accumulation, concentration response (mouse CB2 receptors [3]; mCB2, 5 minutes): potently and efficaciously inhibited cAMP accumulation
- Emax (mouse CB2 receptors [3]; read-out: Cyclase Emax): 52.8%
- ERK1/2 phosphorylation time course (mouse CB2 receptors [4]; mCB2, 1 μM): increased phosphorylated ERK1/2 at 5-, 10-, 30-, and 40-minute time points
- ERK1/2 phosphorylation after PTX treatment (mouse CB2 receptors [4]; mCB2, 1 μM, PTX): abolished the CP55940-mediated phosphorylation of ERK1/2 at the 5-minute time point, but it was retained at the 40-minute time point
- ERK1/2 phosphorylation, concentration response (mouse CB2 receptors [4]; mCB2, 5 minutes): concentration dependency increased ERK1/2 phosphorylation
- ERK1/2 phosphorylation, concentration response (mouse CB2 receptors [4]; mCB2, 20 minutes): decreased ERK1/2 phosphorylation
- effect on ERK1/2 phosphorylation in presence of SR144528 (mouse CB2 receptors [4]; mCB2, 20 minutes, SR144528 1 μM): blocked
- pEC50 (mouse CB2 receptors [4]; pERK1/2 EC50, mouse CB2, 05 mins incubation): 7.98
- pEC50 (mouse CB2 receptors [4]; pERK1/2 EC50, mouse CB2, 20 mins incubation): 8.82
- Emax (mouse CB2 receptors [4]; read-out: pERK1/2 Emax, mouse CB2, 05 mins incubation): 136%
- Emax (mouse CB2 receptors [4]; read-out: pERK1/2 Emax, mouse CB2, 20 mins incubation): 20.3%
- Emax (human CB2 [5]): 33.9%
- cAMP levels, compound alone (no forskolin) (human CB2 [6]): alone did not change the cAMP levels
- duration of decrease in cAMP (human CB2 [6]): up to 10 minutes
- inhibition of forskolin-induced cAMP levels, time course (human CB2 [6]): produced early inhibition of forskolin-induced cAMP levels at 5 minutes
- inhibition of forskolin-stimulated cAMP after PTX pretreatment (human CB2 [6]; PTX): blocked the inhibition of forskolin-stimulated cAMP
- inhibition of forskolin-stimulated cAMP accumulation (human CB2 [6]; hCB2, 5 minutes of treatment): potent and efficacious
- time of inhibition of forskolin-stimulated cAMP accumulation (human CB2 [6]; hCB2, time course): 5 min
- inhibition of cAMP accumulation after PTX pretreatment (human CB2 [6]; hCB2, time course, PTX): abolished this effect
- Emax (human CB2 [6]; read-out: Cyclase Emax): 59.6%
- ERK1/2 phosphorylation time course (human CB2 [7]; hCB2, 1 pM): efficaciously increased ERK1/2 phosphorylation after 5 minutes, 10 minutes, and 30 minutes
- ERK1/2 phosphorylation after PTX treatment (human CB2 [7]; hCB2, 1 pM, PTX): retained
- stimulated phosphorylation of ERK1/2 in presence of SR144528 (human CB2 [7]; hCB2, SR144528 (1 pM)): completely blocked
- Emax (human CB2 [7]; read-out: pERK1/2 Emax, human CB2, 05 mins incubation): 95.7%
- Emax (human CB2 [7]; read-out: pERK1/2 Emax, human CB2, 30 mins incubation): 49.4%

Structure (SMILES): CCCCCCC(C)(C)c1cc(O)c2c(c1)oc(=O)c1ccc(OC)cc12 [AM1710, 3-(1,1-dimethyl-heptyl)-1-hydroxy-9-methoxy-benzo(c) chromen-6-one]
- time by which inhibition of forskolin-stimulated cAMP dissipated (mouse CB2 receptors [3]; HEK mCB2, 1 μM): ≤ 15 min
- forskolin-induced cAMP levels (mouse CB2 receptors [3]): attenuated forskolin-induced cAMP levels
- cAMP levels in the absence of forskolin (mouse CB2 receptors [3]; HEK mCB2, compound alone): alone did not change cAMP levels
- cAMP levels in the absence of forskolin at 10 minutes (mouse CB2 receptors [3]; HEK mCB2, compound alone, 10 minutes): decreased cAMP levels below the basal/no forskolin level
- forskolin-stimulated cAMP after PTX treatment (mouse CB2 receptors [3]; mCB2, 1 μM): abolished the decrease in forskolin-stimulated cAMP
- tolerance to antiallodynic effects over repeated administration, mechanical [8, 16]: tolerance did not develop
- development of tolerance to phase II morphine, mechanical [8, 17]: delayed the development of tolerance to morphine
- mechanical paw withdrawal thresholds, chronic phase I treatment [8, 18]: increased mechanical paw withdrawal thresholds
- tolerance to antiallodynic effects over repeated administration, cold [9, 16]: tolerance did not develop
- development of tolerance to phase II morphine, cold [9, 17]: delayed the development of tolerance to morphine
- cold response time, chronic phase I treatment [9, 18]: reduced the heightened cold response time
- naloxone-precipitated jumps, AM1710 (I)-morphine (II) vs vehicle (I)-vehicle (II) [10]: did not differ
- number of naloxone-precipitated jumps, AM1710 (I)-morphine (II) vs vehicle (I)-morphine (II) ([10]; AM1710 5 mg/kg i.p.×12 days, morphine 10 mg/kg i.p.×12 days): lower
- paclitaxel-induced neuropathic pain, tolerance and physical dependence [11]: suppresses paclitaxel-induced neuropathic pain without producing tolerance or physical dependence
- cAMP levels, compound alone (no forskolin) (human CB2 [6]): alone did not change the cAMP levels
- duration of decrease in cAMP (human CB2 [6]): up to 30 minutes
- inhibition of forskolin-induced cAMP levels, time course (human CB2 [6]): induced a delayed and persistent inhibition of forskolin-stimulated cAMP levels, starting at 10 minutes
- inhibition of forskolin-stimulated cAMP after PTX pretreatment (human CB2 [6]; PTX): blocked the inhibition of forskolin-stimulated cAMP
- cAMP levels vs forskolin alone in PTX-treated cells (human CB2 [6]; HEK hCB2, with forskolin, 5 minutes, PTX): increased cAMP levels compared with forskolin alone

Structure (SMILES): CCCCCOc1c(OC)ccc2cc(C(=O)NCc3ccc4c(c3)OCO4)c(=O)[nH]c12 [JTE907]
- morphine analgesia and morphine antinociceptive tolerance [12]: decreased morphine analgesia and attenuated morphine antinociceptive tolerance

Structure (SMILES): CCCn1c(C)c(C(=O)c2cccc3ccccc23)c2ccccc21 [JWH015]
- pain inhibition on coadministration with morphine [13]: synergistically inhibited preclinical inflammatory, postoperative, and neuropathic pain
- morphine analgesia and morphine antinociceptive tolerance [12]: increased morphine analgesia and morphine antinociceptive tolerance

Structure (SMILES): CCCC(C)(C)c1ccc2c(c1)OC(C)(C)[C@@H]1CC=C(C)C[C@@H]21 [JWH133]
- opioid-sparing effects [14]: exhibited opioid-sparing effects

Structure (SMILES): Cc1c(C(=O)c2cccc3ccccc23)c2cccc3c2n1[C@H](CN1CCOCC1)CO3 [WIN55212-2, reference compound]
- IP1 accumulation (mouse CB2 receptors [15]): increased IP1 accumulation
